In PubChem BioAssay AID248 (DTP/NCI, 2004):
Several values for one entry are separate records, joined by “and”; a condition that tells them apart may be missing. Equal entries are not always repeated. Inconclusive results and toxic doses are left out. No stated cut-off is given here; in the data, active means T/C of 150% or more; inactive means T/C below 125%.

System: L1210 leukemia ip in BDF1 mice, survival T/C
Assay: NCI In Vivo Anticancer Drug Screen. Data for tumor model L1210 Leukemia (intraperitoneal) in B6D2F1 (BDF1) mice
Conditions: endpoint: mean survival time, higher = longer survival
Procedure, shortened: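 Mice bearing the transplanted tumor received compound or vehicle. Survival of the treated group was divided by that of the vehicle-treated control group to give the ratio.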

[1] = dose: 100.0 mg/kg/injection, schedule: Q04DX002 (ip), vehicle: saline with Tween-80
[2] = dose: 100.0 mg/kg/injection, schedule: Q01DX009 (ip), vehicle: Klucel (hydroxypropylcellulose) (HPC)
[3] = dose: 100.0 mg/kg/injection, schedule: Q04DX003 (ip), vehicle: saline with Tween-80
[4] = dose: 200.0 mg/kg/injection, schedule: Q01DX009 (ip), vehicle: Klucel (hydroxypropylcellulose) (HPC)
[5] = dose: 200.0 mg/kg/injection, schedule: Q04DX003 (ip), vehicle: saline with Tween-80
[6] = dose: 400.0 mg/kg/injection, schedule: Q04DX003 (ip), vehicle: saline with Tween-80
[7] = dose: 400.0 mg/kg/injection, schedule: Q01DX009 (ip), vehicle: Klucel (hydroxypropylcellulose) (HPC)
[8] = dose: 75.0 mg/kg/injection, schedule: Q01DX001 (ip), vehicle: saline
[9] = dose: 100.0 mg/kg/injection, schedule: Q01DX009 (ip), vehicle: saline
[10] = dose: 100.0 mg/kg/injection, schedule: Q04DX003 (ip), vehicle: saline
[11] = dose: 200.0 mg/kg/injection, schedule: Q01DX009 (ip), vehicle: saline
[12] = dose: 200.0 mg/kg/injection, schedule: Q04DX003 (ip), vehicle: saline
[13] = dose: 25.0 mg/kg/injection, schedule: Q04DX002 (ip), vehicle: saline with Tween-80
[14] = dose: 50.0 mg/kg/injection, schedule: Q04DX002 (ip), vehicle: saline with Tween-80
[15] = dose: 100.0 mg/kg/injection, schedule: Q04DX003 (ip), vehicle: Klucel (hydroxypropylcellulose) (HPC)
[16] = dose: 200.0 mg/kg/injection, schedule: Q04DX003 (ip), vehicle: Klucel (hydroxypropylcellulose) (HPC)
[17] = dose: 400.0 mg/kg/injection, schedule: Q04DX003 (ip), vehicle: Klucel (hydroxypropylcellulose) (HPC)
[18] = dose: 100.0 mg/kg/injection, schedule: Q01DX009 (ip), vehicle: saline with Tween-80
[19] = dose: 200.0 mg/kg/injection, schedule: Q01DX009 (ip), vehicle: saline with Tween-80
[20] = dose: 400.0 mg/kg/injection, schedule: Q01DX009 (ip), vehicle: saline with Tween-80

Measured: T/C

CCCCCOc1cc([N+](=O)[O-])c(OCCCCC)cc1N1CCN(C(C)=O)CC1
inactive: dose: 100.0 mg/kg/injection, schedule: Q04DX003 (sc), vehicle: olive oil, sesame oil, peanut oil 100 % of control | dose: 200.0 mg/kg/injection, schedule: Q04DX003 (sc), vehicle: olive oil, sesame oil, peanut oil 96 % of control | dose: 400.0 mg/kg/injection, schedule: Q04DX003 (sc), vehicle: olive oil, sesame oil, peanut oil 105 % of control

COc1ccc(OC)c(/C=N\NC(=O)N/N=C/c2cc(OC)ccc2OC)c1
inactive: [1] 101 % of control | dose: 200.0 mg/kg/injection, schedule: Q04DX002 (ip), vehicle: saline with Tween-80 101 % of control | dose: 400.0 mg/kg/injection, schedule: Q04DX002 (ip), vehicle: saline with Tween-80 95 % of control

CCCCCCCCCCCCNC(C)=O
inactive: dose: 100.0 mg/kg/injection, schedule: Q01DX005 (ip), vehicle: Klucel (hydroxypropylcellulose) (HPC) 97 % of control | [2] 105 % of control | dose: 100.0 mg/kg/injection, schedule: Q04DX002 (ip), vehicle: Klucel (hydroxypropylcellulose) (HPC) 98 % of control | [3] 97 % of control | dose: 200.0 mg/kg/injection, schedule: Q01DX005 (ip), vehicle: Klucel (hydroxypropylcellulose) (HPC) 94 % of control | [4] 99 % of control | dose: 200.0 mg/kg/injection, schedule: Q04DX002 (ip), vehicle: Klucel (hydroxypropylcellulose) (HPC) 91 % of control | [5] 98 % of control | dose: 400.0 mg/kg/injection, schedule: Q01DX005 (ip), vehicle: Klucel (hydroxypropylcellulose) (HPC) 102 % of control | dose: 400.0 mg/kg/injection, schedule: Q04DX002 (ip), vehicle: Klucel (hydroxypropylcellulose) (HPC) 106 % of control | [6] 90 % of control

CCCCOC(=O)c1ccc(NC(=S)NCCc2ccccc2)cc1
inactive: [2] 103 % of control | [4] 98 % of control | [7] 95 % of control

O=[N+]([O-])c1ccc(-c2cccc(Cl)c2)c([N+](=O)[O-])c1
inactive: dose: 100.0 mg/kg/injection, schedule: Q01DX001 (ip), vehicle: carboxymethylcellulose (CMC) 91 % of control | dose: 200.0 mg/kg/injection, schedule: Q01DX001 (ip), vehicle: carboxymethylcellulose (CMC) 91 % of control | dose: 400.0 mg/kg/injection, schedule: Q01DX001 (ip), vehicle: carboxymethylcellulose (CMC) 95 % of control

S=C(NCc1ccccc1)[S][Sb]([S]C(=S)NCc1ccccc1)[c]1ccccc1
inactive: dose: 5.0 mg/kg/injection, schedule: Q01DX001 (ip), vehicle: saline 88 % of control | dose: 10.0 mg/kg/injection, schedule: Q01DX001 (ip), vehicle: saline 109 % of control

CN(C)C(=O)CCOc1cccc2ccccc12
inactive: [8] 100 % of control

O=C1NCCc2c1[nH]c1ccccc21
inactive: dose: 50.0 mg/kg/injection, schedule: Q01DX009 (ip), vehicle: saline 90 % of control | [9] 91 % of control | [10] 101 % of control | [11] 86 % of control | [12] 93 % of control

C[CH2][Hg][I]
inactive: [13] 95 % of control | [14] 97 % of control

COc1cc(N)c2c(c1N)C(=O)c1ccccc1C2=O
inactive: [2] 96 % of control | [15] 98 % of control | [4] 104 % of control | [16] 90 % of control | [7] 100 % of control | [17] 100 % of control

COc1ccc(C(=O)CC(C#N)c2ccc3c(c2)OCO3)cc1OC (centres undefined)
inactive: [18] 94 % of control | [19] 94 % of control | [20] 96 % of control

N#Cc1c(N)nc2ccccc2[n+]1[O-]
inactive: dose: 50.0 mg/kg/injection, schedule: Q01DX009 (ip), vehicle: Klucel (hydroxypropylcellulose) (HPC) 94 % of control | [2] 97 % of control | [4] 100 % of control

C=Cc1cccc[n+]1[O-]
inactive: [9] 115 % of control | [11] 102 % of control | dose: 400.0 mg/kg/injection, schedule: Q01DX009 (ip), vehicle: saline 102 % of control

C1#CCCCCCC#CCCCC1
inactive: dose: 37.5 mg/kg/injection, schedule: Q01DX009 (ip), vehicle: acetone 89 % of control | dose: 75.0 mg/kg/injection, schedule: Q01DX001 (ip), vehicle: acetone 91 % of control | dose: 75.0 mg/kg/injection, schedule: Q01DX009 (ip), vehicle: acetone 97 % of control | dose: 150.0 mg/kg/injection, schedule: Q01DX001 (ip), vehicle: acetone 94 % of control | dose: 150.0 mg/kg/injection, schedule: Q01DX009 (ip), vehicle: acetone 98 % of control

CN(N=O)C(=O)NCCNC(=O)N(C)N=O
inactive: dose: 150.0 mg/kg/injection, schedule: Q01DX Z (ip), vehicle: carboxymethylcellulose (CMC) 108 % of control

COc1ccc(CC(C)=C(C#N)C#N)cc1OC
inactive: [13] 103 % of control | [14] 97 % of control | [1] 97 % of control

CC(=O)C(CCC#N)C(C)=O.CC(=O)C(CCC#N)C(C)=O.[Cu]
inactive: dose: 6.25 mg/kg/injection, schedule: Q01DX009 (ip), vehicle: Klucel (hydroxypropylcellulose) (HPC) 95 % of control | dose: 12.5 mg/kg/injection, schedule: Q01DX009 (ip), vehicle: Klucel (hydroxypropylcellulose) (HPC) 98 % of control | dose: 12.5 mg/kg/injection, schedule: Q04DX003 (ip), vehicle: Klucel (hydroxypropylcellulose) (HPC) 90 % of control | dose: 25.0 mg/kg/injection, schedule: Q01DX009 (ip), vehicle: Klucel (hydroxypropylcellulose) (HPC) 87 % of control | dose: 25.0 mg/kg/injection, schedule: Q04DX003 (ip), vehicle: Klucel (hydroxypropylcellulose) (HPC) 91 % of control

O=C(Nc1ccccc1)OCC1CC2CCC1C2 (centres undefined)
inactive: [2] 96 % of control | [15] 95 % of control | [4] 94 % of control | [16] 93 % of control | [7] 96 % of control | [17] 93 % of control

O=[N+]([O-])c1ccc(O)c(N=Cc2ccc(C=Nc3cc([N+](=O)[O-])ccc3O)cc2)c1
inactive: [2] 95 % of control and 86 % of control | [4] 97 % of control | [7] 103 % of control and 90 % of control

Nc1ccc(S(=O)(=O)C(Cl)c2ccccc2)cc1 (centres undefined)
inactive: dose: 100.0 mg/kg/injection, schedule: Q01DX001 (ip), vehicle: saline 104 % of control | dose: 200.0 mg/kg/injection, schedule: Q01DX001 (ip), vehicle: saline 102 % of control | dose: 400.0 mg/kg/injection, schedule: Q01DX001 (ip), vehicle: saline 104 % of control

O=[N+]([O-])c1cnc2ccnn2c1
inactive: [2] 101 % of control | [15] 100 % of control | [4] 97 % of control | [16] 92 % of control | [7] 111 % of control | [17] 100 % of control

CC(=O)Nc1ccc(S(N)(=O)=O)cn1
inactive: [10] 102 % of control | [12] 89 % of control | dose: 400.0 mg/kg/injection, schedule: Q04DX003 (ip), vehicle: saline 86 % of control

CCc1ccccc1N=Nc1sc(N)nc1C
inactive: [8] 94 % of control | dose: 150.0 mg/kg/injection, schedule: Q01DX001 (ip), vehicle: saline 100 % of control | dose: 300.0 mg/kg/injection, schedule: Q01DX001 (ip), vehicle: saline 97 % of control

CC1C2C=CC1C(c1c3ccc(=O)cc-3oc3cc(O)ccc13)C2C(=O)O (centres undefined)
inactive: [18] 98 % of control | [19] 104 % of control | [20] 104 % of control

CCOC(=O)CCCCN(C(=O)OCc1ccccc1)N(C)C(=O)OCc1ccccc1
inactive: dose: 25.0 mg/kg/injection, schedule: Q04DX003 (ip), vehicle: saline with Tween-80 115 % of control | dose: 50.0 mg/kg/injection, schedule: Q04DX003 (ip), vehicle: saline with Tween-80 95 % of control | [3] 101 % of control | [5] 103 % of control | [6] 97 % of control
